# Counter-ions that a name gives are not always drawn.
# Experiment: Inhibition of binding of [125I]-CCK-8 to the cholecystokinin type B receptor
row,SMILES,IC50
1,"COC(=O)Cc1cccc(NC(=O)NC2N=C(c3ccccc3)c3ccccc3N(C)C2=O)c1 (stereo unspecified) [{3-[3-(1-Methyl-2-oxo-5-phenyl-2,3-dihydro-1H-benzo[e][1,4]diazepin-3-yl)-ureido]-phenyl}-acetic acid methyl ester]",33 nM
2,CN1C(=O)[C@H](NC(=O)Nc2cccc(O)c2)N=C(c2ccccc2)c2ccccc21,15 nM
3,"CN1C(=O)C(NC(=O)Nc2ccc(C(=O)O)cc2)N=C(c2ccccc2)c2ccccc21 (stereo unspecified) [4-[3-(1-Methyl-2-oxo-5-phenyl-2,3-dihydro-1H-benzo[e][1,4]diazepin-3-yl)-ureido]-benzoic acid]",> 100 nM
4,"CCOC(=O)CN1C(=O)C(NC(=O)N[C@@H](C)c2ccccc2)N=C(c2ccccc2)c2ccccc21 (stereo partly specified) [{2-Oxo-5-phenyl-3-[3-(1-phenyl-ethyl)-ureido]-2,3-dihydro-benzo[e][1,4]diazepin-1-yl}-acetic acid ethyl ester]",> 100 nM
5,"COc1cccc(NC(=O)NC2N=C(c3ccccc3)c3ccccc3N(CC(=O)N3CCN(C)CC3)C2=O)c1 (stereo unspecified) [1-(3-Methoxy-phenyl)-3-{1-[2-(4-methyl-piperazin-1-yl)-2-oxo-ethyl]-2-oxo-5-phenyl-2,3-dihydro-1H-benzo[e][1,4]diazepin-3-yl}-urea]",4.4 nM
6,"CN1C(=O)C(NC(=O)Nc2ccc([N+](=O)[O-])cc2)N=C(c2ccccc2)c2ccccc21 (stereo unspecified) [1-(1-Methyl-2-oxo-5-phenyl-2,3-dihydro-1H-benzo[e][1,4]diazepin-3-yl)-3-(4-nitro-phenyl)-urea]",46 nM
7,"Cc1cccc(NC(=O)NC2N=C(c3ccccc3)c3ccccc3N(Cc3cnc[nH]3)C2=O)c1 (stereo unspecified) [1-[1-(1H-Imidazol-4-ylmethyl)-2-oxo-5-phenyl-2,3-dihydro-1H-benzo[e][1,4]diazepin-3-yl]-3-m-tolyl-urea]",7.9 nM
8,"O=C(Nc1ccc(Cl)cc1)NC1N=C(c2ccccc2)c2ccccc2NC1=O (stereo unspecified) [1-(4-Chloro-phenyl)-3-(2-oxo-5-phenyl-2,3-dihydro-1H-benzo[e][1,4]diazepin-3-yl)-urea]",270 nM
9,"COc1ccc(NC(=O)NC2N=C(c3ccccc3)c3ccccc3N(C)C2=O)cc1 (stereo unspecified) [1-(4-Methoxy-phenyl)-3-(1-methyl-2-oxo-5-phenyl-2,3-dihydro-1H-benzo[e][1,4]diazepin-3-yl)-urea]",26 nM
10,"COc1cccc(NC(=O)NC2N=C(c3ccccc3)c3ccccc3N(CC(=O)N3CCCC3)C2=O)c1 (stereo unspecified) [1-(3-Methoxy-phenyl)-3-[2-oxo-1-(2-oxo-2-pyrrolidin-1-yl-ethyl)-5-phenyl-2,3-dihydro-1H-benzo[e][1,4]diazepin-3-yl]-urea]",0.24 nM
11,"Cc1cccc(NC(=O)NC2N=C(c3ccccc3)c3ccccc3N(Cc3nnc(C)[nH]3)C2=O)c1 (stereo unspecified) [1-[1-(5-Methyl-4H-[1,2,4]triazol-3-ylmethyl)-2-oxo-5-phenyl-2,3-dihydro-1H-benzo[e][1,4]diazepin-3-yl]-3-m-tolyl-urea]",9.7 nM
12,"CCOC(=O)CCN1C(=O)C(NC(=O)Nc2cccc(OC)c2)N=C(c2ccccc2)c2ccccc21 (stereo unspecified) [3-{3-[3-(3-Methoxy-phenyl)-ureido]-2-oxo-5-phenyl-2,3-dihydro-benzo[e][1,4]diazepin-1-yl}-propionic acid ethyl ester]",1 nM
13,"CN1C(=O)C(NC(=O)NCc2ccccc2)N=C(c2ccccc2)c2ccccc21 (stereo unspecified) [1-Benzyl-3-(1-methyl-2-oxo-5-phenyl-2,3-dihydro-1H-benzo[e][1,4]diazepin-3-yl)-urea]",860 nM
14,"CCN(CC)C(=O)C(C)N1C(=O)C(NC(=O)Nc2ccc(Cl)cc2)N=C(c2ccccc2)c2ccccc21 (stereo unspecified) [2-{3-[3-(4-Chloro-phenyl)-ureido]-2-oxo-5-phenyl-2,3-dihydro-benzo[e][1,4]diazepin-1-yl}-N,N-diethyl-propionamide]",22 nM
15,"CCN(CC)CC(=O)OCCN1C(=O)C(NC(=O)Nc2cccc(C)c2)N=C(c2ccccc2)c2ccccc21 (stereo unspecified) [Diethylamino-acetic acid 2-[2-oxo-5-phenyl-3-(3-m-tolyl-ureido)-2,3-dihydro-benzo[e][1,4]diazepin-1-yl]-ethyl ester]",5.6 nM
16,"COc1ccc(NC(=O)NC2N=C(c3ccccc3)c3ccccc3N(C)C2=O)cn1 (stereo unspecified) [1-(6-Methoxy-pyridin-3-yl)-3-(1-methyl-2-oxo-5-phenyl-2,3-dihydro-1H-benzo[e][1,4]diazepin-3-yl)-urea]",460 nM
17,"CN1C(=O)[C@@H](NC(=O)Nc2ccc(Cl)cc2)N=C(c2ccccc2)c2ccccc21 [1-(4-Chloro-phenyl)-3-((S)-1-methyl-2-oxo-5-phenyl-2,3-dihydro-1H-benzo[e][1,4]diazepin-3-yl)-urea]",1100 nM
18,CC(=O)Oc1cccc(NC(=O)N[C@@H]2N=C(c3ccccc3)c3ccccc3N(C)C2=O)c1,500 nM
19,"COC(=O)[C@H]1CCCN1OC(=O)CN1C(=O)C(NC(=O)Nc2cccc(OC)c2)N=C(c2ccccc2)c2ccccc21 (stereo partly specified) [1-(2-{3-[3-(3-Methoxy-phenyl)-ureido]-2-oxo-5-phenyl-2,3-dihydro-benzo[e][1,4]diazepin-1-yl}-acetoxy)-pyrrolidine-2-carboxylic acid methyl ester]",9.7 nM
20,"Cc1cccc(NC(=O)NC2N=C(c3ccccc3)c3ccccc3N(CC(=O)O)C2=O)c1 (stereo unspecified) [[2-Oxo-5-phenyl-3-(3-m-tolyl-ureido)-2,3-dihydro-benzo[e][1,4]diazepin-1-yl]-acetic acid]",380 nM
21,"Cc1cccc(NC(=O)NC2N=C(c3ccccc3)c3ccccc3N(CC(=O)N3CCN(C)CC3)C2=O)c1 (stereo unspecified) [1-{1-[2-(4-Methyl-piperazin-1-yl)-2-oxo-ethyl]-2-oxo-5-phenyl-2,3-dihydro-1H-benzo[e][1,4]diazepin-3-yl}-3-m-tolyl-urea; hydrochloride]",3.5 nM

row,SMILES,IC50
1,"CN1C(=O)C(NC(=O)NC2CCCCC2)N=C(c2ccccc2)c2ccccc21 (stereo unspecified) [1-Cyclohexyl-3-(1-methyl-2-oxo-5-phenyl-2,3-dihydro-1H-benzo[e][1,4]diazepin-3-yl)-urea]",3000 nM
2,"CN1C(=O)C(NC(=O)Nc2ccc(Cl)nc2)N=C(c2ccccc2)c2ccccc21 (stereo unspecified) [1-(6-Chloro-pyridin-3-yl)-3-(1-methyl-2-oxo-5-phenyl-2,3-dihydro-1H-benzo[e][1,4]diazepin-3-yl)-urea]",46 nM
3,"O=C(Nc1ccc(Cl)cc1)NC1N=C(c2ccccc2)c2ccccc2N(C[C@@H](O)CCl)C1=O (stereo partly specified) [1-[1-(3-Chloro-2-hydroxy-propyl)-2-oxo-5-phenyl-2,3-dihydro-1H-benzo[e][1,4]diazepin-3-yl]-3-(4-chloro-phenyl)-urea]",6 nM
4,"Cc1cccc(NC(=O)NC2N=C(c3cccnc3)c3ccccc3N(C)C2=O)c1 (stereo unspecified) [1-(1-Methyl-2-oxo-5-pyridin-3-yl-2,3-dihydro-1H-benzo[e][1,4]diazepin-3-yl)-3-m-tolyl-urea]",92 nM
5,"C[C@H](NC(=O)NC1N=C(c2ccccc2)c2ccccc2N(C)C1=O)c1ccccc1 (stereo partly specified) [1-(1-Methyl-2-oxo-5-phenyl-2,3-dihydro-1H-benzo[e][1,4]diazepin-3-yl)-3-(1-phenyl-ethyl)-urea]",11000 nM
6,"Cc1cc(C)cc(NC(=O)NC2N=C(c3ccccc3)c3ccccc3N(C)C2=O)c1 (stereo unspecified) [1-(3,5-Dimethyl-phenyl)-3-(1-methyl-2-oxo-5-phenyl-2,3-dihydro-1H-benzo[e][1,4]diazepin-3-yl)-urea]",267 nM
7,"CN1C(=O)[C@H](NC(=O)Nc2ccc(Cl)cc2)N=C(c2ccccc2)c2ccccc21 [1-(4-Chloro-phenyl)-3-((R)-1-methyl-2-oxo-5-phenyl-2,3-dihydro-1H-benzo[e][1,4]diazepin-3-yl)-urea]",20 nM
8,"CN1C(=O)C(NC(=O)Nc2ccccc2[N+](=O)[O-])N=C(c2ccccc2)c2ccccc21 (stereo unspecified) [1-(1-Methyl-2-oxo-5-phenyl-2,3-dihydro-1H-benzo[e][1,4]diazepin-3-yl)-3-(2-nitro-phenyl)-urea]",1200 nM
9,"O=C(Nc1ccc(Cl)cc1)NC1N=C(c2ccccc2)c2ccccc2N(Cc2nnn[nH]2)C1=O (stereo unspecified) [1-(4-Chloro-phenyl)-3-[2-oxo-5-phenyl-1-(1H-tetrazol-5-ylmethyl)-2,3-dihydro-1H-benzo[e][1,4]diazepin-3-yl]-urea]",490 nM
10,"CN1C(=O)C(NC(=O)Nc2cccc(C(=O)O)c2)N=C(c2ccccc2)c2ccccc21 (stereo unspecified) [3-[3-(1-Methyl-2-oxo-5-phenyl-2,3-dihydro-1H-benzo[e][1,4]diazepin-3-yl)-ureido]-benzoic acid]",9.7 nM
11,"CC(=O)c1cccc(NC(=O)NC2N=C(c3ccccc3)c3ccccc3N(C)C2=O)c1 (stereo unspecified) [1-(3-Acetyl-phenyl)-3-(1-methyl-2-oxo-5-phenyl-2,3-dihydro-1H-benzo[e][1,4]diazepin-3-yl)-urea]",4.8 nM
12,C=Cc1cccc(NC(=O)N[C@@H]2N=C(c3ccccc3)c3ccccc3N(C)C2=O)c1,35 nM
13,"CN1C(=O)C(NC(=O)Nc2ccc(F)cc2)N=C(c2ccccc2)c2ccccc21 (stereo unspecified) [1-(4-Fluoro-phenyl)-3-(1-methyl-2-oxo-5-phenyl-2,3-dihydro-1H-benzo[e][1,4]diazepin-3-yl)-urea]",66 nM
14,CN1C(=O)[C@@H](NC(=O)Nc2ccccc2Cl)N=C(c2ccccc2)c2ccccc21,280 nM
15,O=C(Nc1ccc(Cl)cc1)N[C@H]1N=C(c2ccccc2)c2ccccc2N(CC(=O)N2CCCC2)C1=O,13 nM
16,"CN1C(=O)C(NC(=O)Nc2cccc3ccccc23)N=C(c2ccccc2)c2ccccc21 (stereo unspecified) [1-(1-Methyl-2-oxo-5-phenyl-2,3-dihydro-1H-benzo[e][1,4]diazepin-3-yl)-3-naphthalen-1-yl-urea]",79 nM
17,"COc1cc(NC(=O)NC2N=C(c3ccccc3)c3ccccc3N(C)C2=O)cc(OC)c1 (stereo unspecified) [1-(3,5-Dimethoxy-phenyl)-3-(1-methyl-2-oxo-5-phenyl-2,3-dihydro-1H-benzo[e][1,4]diazepin-3-yl)-urea]",2300 nM
18,"Cc1ccc(NC(=O)NC2N=C(c3ccccc3)c3ccccc3N(C)C2=O)cc1C (stereo unspecified) [1-(3,4-Dimethyl-phenyl)-3-(1-methyl-2-oxo-5-phenyl-2,3-dihydro-1H-benzo[e][1,4]diazepin-3-yl)-urea]",22 nM
19,"Cc1cccc(NC(=O)NC2N=C(c3ccccc3)c3ccccc3N(CC(=O)N3CC[N+](C)(C)CC3)C2=O)c1 (stereo unspecified) [1,1-Dimethyl-4-{2-[2-oxo-5-phenyl-3-(3-m-tolyl-ureido)-2,3-dihydro-benzo[e][1,4]diazepin-1-yl]-acetyl}-piperazin-1-ium; iodide]",58 nM
20,"CN1C(=O)C(NC(=O)Nc2cccnc2)N=C(c2ccccc2)c2ccccc21 (stereo unspecified) [1-(1-Methyl-2-oxo-5-phenyl-2,3-dihydro-1H-benzo[e][1,4]diazepin-3-yl)-3-pyridin-3-yl-urea]",310 nM

# Reference: BindingDB's records for doi:10.1021/jm00078a018 (Merck Research Laboratories, 1994)
